Measurements published in patent US20240092784A1, “CONDENSED HETEROCYCLIC COMPOUND” (NISSAN CHEMICAL CORPORATION, priority 2020, published 2024).

Target: human SPR (Homo sapiens (Human), UniProt P35270)
Assay: Evaluation Example 2: Measurement of human SPR inhibitory activity (seven concentrations, sepiapterin absorbance at 420 nm)
Assay type: biochemical
Settings: Evaluation Example 2, seven concentrations 0.14 nM to 100 nM, 240 minutes at room temperature, read-out: IC50
Procedure, shortened: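 His-tagged full-length human SPR (1-261) was expressed in E. coli and the tag removed. Enzyme at 150 ng/mL in 100 mM Tris-HCl pH 7.5/0.01% BSA was mixed with compound (0.14–100 nM, seven points), 120 μM sepiapterin and 160 μM NADPH, both as added-solution concentrations. After 240 min at room temperature, remaining sepiapterin was read at 420 nm to give percent inhibition.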

human SPR, sequence (P35270 whole entry): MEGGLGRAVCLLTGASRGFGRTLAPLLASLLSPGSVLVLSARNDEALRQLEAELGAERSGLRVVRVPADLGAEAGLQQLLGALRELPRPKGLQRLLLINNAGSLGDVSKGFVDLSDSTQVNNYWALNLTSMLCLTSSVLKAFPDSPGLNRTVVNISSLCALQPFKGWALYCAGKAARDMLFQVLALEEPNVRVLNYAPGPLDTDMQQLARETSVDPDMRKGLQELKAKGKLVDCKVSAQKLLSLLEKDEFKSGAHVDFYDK

Row | Compound | IC50 [nM]
1 | COCC1CCN(C(=O)/C=C/c2cnn3c(O)c(C(=O)NC4CC4)c(=O)n(CC(C)C)c23)CC1 [compound 475, (E)-N-Cyclopropyl-7-hydroxy-4-isobutyl-3-(3-(4-(methoxymethyl)piperidin-1-yl)-3-oxoprop-1-en-1-yl)-5-oxo-4,5-dihydropyrazolo[1,5-a]pyrimidine-6-carboxamide] | 0.85
2 | CC(C)Cn1c(=O)c(C(=O)NC2CC2)c(O)n2ncc(/C=C/C(=O)N3CCC(O)CC3)c12 [compound 476, (E)-N-Cyclopropyl-7-hydroxy-3-(3-(4-hydroxypiperidin-1-yl)-3-oxoprop-1-en-1-yl)-4-isobutyl-5-oxo-4,5-dihydropyrazolo[1,5-a]pyrimidine-6-carboxamide] | 0.75
3 | CC(C)Cn1c(=O)c(C(=O)NC2CC2)c(O)n2ncc(/C=C/C(=O)N3CCC(C(N)=O)CC3)c12 [compound 477, (E)-3-(3-(4-Carbamoylpiperidin-1-yl)-3-oxoprop-1-en-1-yl)-N-cyclopropyl-7-hydroxy-4-isobutyl-5-oxo-4,5-dihydropyrazolo[1,5-a]pyrimidine-6-carboxamide] | 0.64
4 | CC(C)Cn1c(=O)c(C(=O)NC2CC2)c(O)n2ncc(/C=C/C(=O)N3CCC(OC4CCOCC4)CC3)c12 [compound 478, (E)-N-Cyclopropyl-7-hydroxy-4-isobutyl-5-oxo-3-(3-oxo-3-(4-((tetrahydro-2H-pyran-4-yl)oxy)piperidin-1-yl)prop-1-en-1-yl)-4,5-dihydropyrazolo[1,5-a]pyrimidine-6-carboxamide] | 0.95
5 | CC(C)Cn1c(=O)c(C(=O)NC2CC2)c(O)n2ncc(/C=C/C(=O)N3CCC(C)(C)C3)c12 [compound 479, (E)-N-Cyclopropyl-3-(3-(3,3-dimethylpyrrolidin-1-yl)-3-oxoprop-1-en-1-yl)-7-hydroxy-4-isobutyl-5-oxo-4,5-dihydropyrazolo[1,5-a]pyrimidine-6-carboxamide] | 1.05
6 | CC(C)Cn1c(=O)c(C(=O)NC2CC2)c(O)n2ncc(/C=C/C(=O)N3CCC(C(F)(F)F)CC3)c12 [compound 480, (E)-N-Cyclopropyl-7-hydroxy-4-isobutyl-5-oxo-3-(3-oxo-3-(4-(trifluoromethyl)piperidine-1-yl)prop-1-en-1-yl)-4,5-dihydropyrazolo[1,5-a]pyrimidine-6-carboxamide] | 1.12
7 | CC(C)Cn1c(=O)c(C(=O)NC2CC2)c(O)n2ncc(/C=C/C(=O)N3CC[C@@H](F)C3)c12 [compound 481, (R,E)-N-Cyclopropyl-3-(3-(3-fluoropyrrolidin-1-yl)-3-oxoprop-1-en-1-yl)-7-hydroxy-4-isobutyl-5-oxo-4,5-dihydropyrazolo[1,5-a]pyrimidine-6-carboxamide] | 0.75
8 | CC(C)Cn1c(=O)c(C(=O)NC2CC2)c(O)n2ncc(/C=C/C(=O)N3CC[C@H](C#N)C3)c12 [compound 482, (S,E)-3-(3-(3-Cyanopyrrolidin-1-yl)-3-oxoprop-1-en-1-yl)-N-cyclopropyl-7-hydroxy-4-isobutyl-5-oxo-4,5-dihydropyrazolo[1,5-a]pyrimidine-6-carboxamide] | 0.71
9 | CC(C)Cn1c(=O)c(C(=O)NC2CC2)c(O)n2ncc(/C=C/C(=O)N3CC[C@@H](C#N)C3)c12 [compound 483, (R,E)-3-(3-(3-Cyanopyrrolidin-1-yl)-3-oxoprop-1-en-1-yl)-N-cyclopropyl-7-hydroxy-4-isobutyl-5-oxo-4,5-dihydropyrazolo[1,5-a]pyrimidine-6-carboxamide] | 0.69
10 | CC(C)Cn1c(=O)c(C(=O)NC2CC2)c(O)n2ncc(/C=C/C(=O)N3CCC[C@H]3C(F)(F)F)c12 [compound 484, (S,E)-N-Cyclopropyl-7-hydroxy-4-isobutyl-5-oxo-3-(3-oxo-3-(2-(trifluoromethyl)pyrrolidine-1-yl)prop-1-en-1-yl)-4,5-dihydropyrazolo[1,5-a]pyrimidine-6-carboxamide] | 1.2
11 | CC(C)Cn1c(=O)c(C(=O)NC2CC2)c(O)n2ncc(/C=C/C(=O)N3CCC[C@@H]3C(F)(F)F)c12 [compound 485, (R,E)-N-Cyclopropyl-7-hydroxy-4-isobutyl-5-oxo-3-(3-oxo-3-(2-(trifluoromethyl)pyrrolidine-1-yl)prop-1-en-1-yl)-4,5-dihydropyrazolo[1,5-a]pyrimidine-6-carboxamide] | 1.1
12 | CC(C)Cn1c(=O)c(C(=O)NC2CC2)c(O)n2ncc(/C=C/C(=O)N3CCC[C@H]3C(N)=O)c12 [compound 486, (S,E)-3-(3-(2-Carbamoylpyrrolidin-1-yl)-3-oxoprop-1-en-1-yl)-N-cyclopropyl-7-hydroxy-4-isobutyl-5-oxo-4,5-dihydropyrazolo[1,5-a]pyrimidine-6-carboxamide] | 0.92
13 | CC(C)Cn1c(=O)c(C(=O)NC2CC2)c(O)n2ncc(/C=C/C(=O)N3CCC[C@@H]3C(N)=O)c12 [compound 487, (R,E)-3-(3-(2-Carbamoylpyrrolidin-1-yl)-3-oxoprop-1-en-1-yl)-N-cyclopropyl-7-hydroxy-4-isobutyl-5-oxo-4,5-dihydropyrazolo[1,5-a]pyrimidine-6-carboxamide] | 0.97
14 | CC(C)Cn1c(=O)c(C(=O)NC2CC2)c(O)n2ncc(/C=C/C(=O)N3CCC(S(C)(=O)=O)CC3)c12 [compound 488] | 0.87
15 | CC(C)Cn1c(=O)c(C(=O)NC2CC2)c(O)n2ncc(/C=C/C(=O)N3CCOC(C)(C)C3)c12 [compound 489, (E)-N-Cyclopropyl-3-(3-(2,2-dimethylmorpholino)-3-oxoprop-1-en-1-yl)-7-hydroxy-4-isobutyl-5-oxo-4,5-dihydropyrazolo[1,5-a]pyrimidine-6-carboxamide] | 0.93
16 | CC(C)Cn1c(=O)c(C(=O)NC2CC2)c(O)n2ncc(/C=C/C(=O)N3C[C@H](C)O[C@@H](C)C3)c12 [compound 490, N-Cyclopropyl-3-((E)-3-((2S,6S)-2,6-dimethylmorpholino)-3-oxoprop-1-en-1-yl)-7-hydroxy-4-isobutyl-5-oxo-4,5-dihydropyrazolo[1,5-a]pyrimidine-6-carboxamide] | 0.88
17 | CC(C)Cn1c(=O)c(C(=O)NC2CC2)c(O)n2ncc(/C=C/C(=O)N3C[C@@H](C)O[C@H](C)C3)c12 [compound 491] | 0.82
18 | CC(C)Cn1c(=O)c(C(=O)NC2CC2)c(O)n2ncc(/C=C/C(=O)NC3(C)CCOCC3)c12 [compound 492, (E)-N-Cyclopropyl-7-hydroxy-4-isobutyl-3-(3-((4-methyltetrahydro-2H-pyran-4-yl)amino)-3-oxoprop-1-en-1-yl)-5-oxo-4,5-dihydropyrazolo[1,5-a]pyrimidine-6-carboxamide] | 0.89
19 | CC(C)Cn1c(=O)c(C(=O)NC2CC2)c(O)n2ncc(/C=C/C(=O)NC(C)(C)C3CC3)c12 [compound 493] | 0.94
20 | CC(C)Cn1c(=O)c(C(=O)NC2CC2)c(O)n2ncc(/C=C/C(=O)N3CCOC[C@H]3C)c12 [compound 494, (R,E)-N-Cyclopropyl-7-hydroxy-4-isobutyl-3-(3-(3-methylmorpholino)-3-oxoprop-1-en-1-yl)-5-oxo-4,5-dihydropyrazolo[1,5-a]pyrimidine-6-carboxamide] | 0.73
21 | CC(C)Cn1c(=O)c(C(=O)NC2CC2)c(O)n2ncc(/C=C/C(=O)N3CCC[C@H]3C#N)c12 [compound 495, (S,E)-3-(3-(2-Cyanopyrrolidin-1-yl)-3-oxoprop-1-en-1-yl)-N-cyclopropyl-7-hydroxy-4-isobutyl-5-oxo-4,5-dihydropyrazolo[1,5-a]pyrimidine-6-carboxamide] | 0.91
22 | CC(C)Cn1c(=O)c(C(=O)NC2CC2)c(O)n2ncc(/C=C/C(=O)N3CCC[C@@H]3C#N)c12 [compound 496, (R,E)-3-(3-(2-Cyanopyrrolidin-1-yl)-3-oxoprop-1-en-1-yl)-N-cyclopropyl-7-hydroxy-4-isobutyl-5-oxo-4,5-dihydropyrazolo[1,5-a]pyrimidine-6-carboxamide] | 0.75
23 | CC(C)Cn1c(=O)c(C(=O)NC2CC2)c(O)n2ncc(/C=C/C(=O)N(C)C3CC3)c12 [compound 497, (E)-N-Cyclopropyl-3-(3-(cyclopropyl(methyl)amino)-3-oxoprop-1-en-1-yl)-7-hydroxy-4-isobutyl-5-oxo-4,5-dihydropyrazolo[1,5-a]pyrimidine-6-carboxamide] | 0.59
24 | CC(C)Cn1c(=O)c(C(=O)NC2CC2)c(O)n2ncc(/C=C/C(=O)N(C)CC#N)c12 [compound 498, (E)-3-(3-((Cyanomethyl)(methyl)amino)-3-oxoprop-1-en-1-yl)-N-cyclopropyl-7-hydroxy-4-isobutyl-5-oxo-4,5-dihydropyrazolo[1,5-a]pyrimidine-6-carboxamide] | 0.72
25 | CC(C)Cn1c(=O)c(C(=O)NC2CC2)c(O)n2ncc(/C=C/C(=O)N(C)CC3CCOCC3)c12 [compound 499, (E)-N-Cyclopropyl-7-hydroxy-4-isobutyl-3-(3-(methyl((tetrahydro-2H-pyran-4-yl)methyl)amino)-3-oxoprop-1-en-1-yl)-5-oxo-4,5-dihydropyrazolo[1,5-a]pyrimidine-6-carboxamide] | 0.74
26 | CC(C)Cn1c(=O)c(C(=O)NC2CC2)c(O)n2ncc(/C=C/C(=O)N3CC[C@H](O)C3)c12 [compound 501, (S,E)-N-Cyclopropyl-7-hydroxy-3-(3-(3-hydroxypyrrolidin-1-yl)-3-oxoprop-1-en-1-yl)-4-isobutyl-5-oxo-4,5-dihydropyrazolo[1,5-a]pyrimidine-6-carboxamide] | 0.71
27 | CC(C)Cn1c(=O)c(C(=O)NC2CC2)c(O)n2ncc(/C=C/C(=O)N3CC[C@@H](O)C3)c12 [compound 502, (R,E)-N-Cyclopropyl-7-hydroxy-3-(3-(3-hydroxypyrrolidin-1-yl)-3-oxoprop-1-en-1-yl)-4-isobutyl-5-oxo-4,5-dihydropyrazolo[1,5-a]pyrimidine-6-carboxamide] | 0.7
28 | CC(C)Cn1c(=O)c(C(=O)NC2CC2)c(O)n2ncc(/C=C/C(=O)N(C)C(C)C)c12 [compound 503, (E)-N-Cyclopropyl-7-hydroxy-4-isobutyl-3-(3-(isopropyl(methyl)amino)-3-oxoprop-1-en-1-yl)-5-oxo-4,5-dihydropyrazolo[1,5-a]pyrimidine-6-carboxamide] | 0.8
